Experimental data from PubChem BioAssay AID1159563 (GlaxoSmithKline (GSK), 2015).
The source made the active and inactive calls. The rule behind the calls is not given here.

test system: HepG2 cytotoxicity; experiment: human hepatoma cell viability loss – cytotoxicity control (AID 1159563)

| SMILES | IC50 |
| --- | --- |
| Cc1cc(=O)n2nc(Oc3ccc(C#N)cc3Cl)sc2n1 | 40 µM |
| O=C(Nc1nc(-c2ccccn2)cs1)c1ccccc1-n1cnnn1 | 1.6 µM |
| CCn1nccc1CN(C)C(=O)C=Cc1ccc(Cl)cc1 | > 100 µM (inactive) |
| Cc1nc(-c2nc(NCc3ccc(Cl)cc3)c3cccnc3c2O)n[nH]1 | 16 µM |
| CS(=O)(=O)c1ccc(CC(=O)Nc2nc(-c3ccc(Cl)s3)cs2)cc1 | > 100 µM (inactive) |
| Cc1ccc(S(=O)(=O)Nc2ccc(CN3CCN(C(=O)c4cccc(C)c4)CC3)cc2)cc1 | > 100 µM (inactive) |
| COc1cc(Cl)c(C)cc1NC(=O)c1ccc([N+](=O)[O-])s1 | 32 µM |
| Cc1c(C(C)NC(=O)Nc2cccc(Cl)c2)sc2ncnn12 (stereo unspecified) | > 100 µM (inactive) |
| Cc1ccccc1CNc1cc(C2CC2)nc(-c2nccn2C)n1 | 16 µM |
| O=C(NC1CCN(C2Cc3ccc(NS(=O)(=O)c4cc(F)cc(F)c4)cc3C2)CC1)C1CC1 (stereo unspecified) | > 100 µM (inactive) |
| CCCN1CCN(Cc2ccc(S(=O)(=O)Nc3cccc(C)c3)cc2)CC1 | > 100 µM (inactive) |
| CNC(=O)C1Cc2ccccc2N1C(=O)Cc1ccccc1 (stereo unspecified) | > 100 µM (inactive) |
| CCCCN(C(=O)c1ccc(NC(=O)C(C)C)cc1)c1ccccc1 | > 100 µM (inactive) |
| COc1ccc(Nc2nc(-c3ccccn3)cs2)c(OC)c1 | > 100 µM (inactive) |
| O=c1[nH]ccc2ccc(-c3ccncc3)cc12 | > 100 µM (inactive) |
| Cc1ccnc(NS(=O)(=O)c2ccc(NC(=O)c3ccc([N+](=O)[O-])s3)cc2)n1 | 16 µM |
| O=[N+]([O-])c1ccc(-c2nnn(-c3ccc(Cl)cc3)n2)o1 | > 100 µM (inactive) |
| COc1cccc(NS(=O)(=O)c2ccc3[nH]cc(C(=O)NCCC(C)C)c(=O)c3c2)c1 | 32 µM |
| COc1ccc(-c2cc(C)no2)cc1S(=O)(=O)Nc1ccc(F)c(Cl)c1 | 79 µM |
| Oc1c(-c2n[nH]c(CCc3ccccc3)n2)ncc2cccnc12 | 40 µM |
| CCS(=O)(=O)c1cccc(C(=O)Nc2nc(-c3ccccn3)cs2)c1 | 25 µM |
| O=C(Nc1nc2ccccc2[nH]1)c1ccc2nc[nH]c2c1 | 50 µM |
| COc1ccc(-c2cnc(NC(=O)c3ccc(F)cc3)n2C)cc1 | > 100 µM (inactive) |
| CNc1cncc(C2CCCN2C(=O)Cc2ccc3ccccc3c2)n1 (stereo unspecified) | > 100 µM (inactive) |
| Cc1cccc(NS(=O)(=O)c2ccc3c(c2)C(=O)c2cc(S(=O)(=O)Nc4cccc(C)c4C)ccc2-3)c1C | > 100 µM (inactive) |
| c1ccc(-c2nc(NCc3ccco3)c3ccccc3n2)nc1 | > 100 µM (inactive) |

| SMILES | IC50 |
| --- | --- |
| CN(C)Cc1ccc(-c2ccc(S(=O)(=O)NCC3CCCO3)c(F)c2)cc1 (stereo unspecified) | > 130 µM (inactive) |
| CN(C)c1ccc(-c2cc3nccnc3c(OC[C@H]3CCCNC3)n2)cn1 | 63 µM |
| CCN(CC)S(=O)(=O)c1ccc(C)c(NC(=O)c2cc(Cl)c3c(c2)OCO3)c1 | > 100 µM (inactive) |
| C=CC[C@@H]1CC=C[C@@H](C)N1C(=O)CCc1nnc(-c2ccc3c(c2)OCO3)o1 | > 100 µM (inactive) |
| CNC(=O)C1Cc2ccccc2N1C(=O)Cc1ccc(OC)cc1 (stereo unspecified) | > 100 µM (inactive) |
| COc1cc(OC)cc(C(NS(=O)(=O)c2ccc(Cl)c(C(F)(F)F)c2)c2nccn2C)c1 (stereo unspecified) | > 100 µM (inactive) |
| O=C(NCCCn1cnc2ccccc21)c1ccc(NC(=O)c2ccco2)cc1 | 16 µM |
| COc1ccc(NS(=O)(=O)c2cc(NC(=O)Cc3ccc(C)cc3)ccc2N2CCOCC2)cc1 | > 100 µM (inactive) |
| CN(Cc1nc2ccc(C(=O)NCC3CCCCC3)cc2[nH]1)C1CCCc2cccnc21 (stereo unspecified) | 16 µM |
| O=c1oc2ccccc2n1C1CCN(Cc2ccccc2-c2cccnc2)CC1 | > 100 µM (inactive) |
| N#Cc1cccc(Nc2nccc(N3CCC(NS(=O)(=O)c4cccc(C#N)c4)CC3)n2)c1 | 50 µM |
| Cc1ccc(Nc2nc(-c3ccccn3)cc(N3CCCC(O)C3)n2)cc1 (stereo unspecified) | 40 µM |
| COc1ccc(OC)c(NC(=O)c2ccc([N+](=O)[O-])o2)c1 | 20 µM |
| Cc1[nH]n2c(=O)c3c(nc2c1-c1ccc(F)cc1)CCCC3 | > 100 µM (inactive) |
| CNc1nc(C)nc(N2CCc3cc(C(=O)NCc4ccc(-c5ccn[nH]5)cc4Cl)ccc32)n1 | > 100 µM (inactive) |
| Cc1cnc(Nc2cc(Cc3ccccc3)nc(NC3CCC(O)CC3)n2)s1 (stereo unspecified) | 25 µM |
| CCn1c(NC(=O)Cc2ccc(F)cc2)nc2ccccc21 | > 100 µM (inactive) |
| CN1CCC(N(C)c2nccc(N3CCN(C(=O)c4cccc(-c5cccnc5)c4)CC3)n2)CC1 | 40 µM |
| CCCn1c(NC(=O)CCn2cc(Br)cn2)nc2ccccc21 | > 100 µM (inactive) |
| C=CCOCC1Cn2nc([N+](=O)[O-])nc2O1 (stereo unspecified) | > 100 µM (inactive) |
| COc1ccc(Nc2nccc(N(C)c3n[nH]c4c(F)cccc34)n2)cc1S(C)(=O)=O | 20 µM |
| CNS(=O)(=O)c1ccccc1Nc1nc(Nc2cc(C)nn2C)ncc1Cl | 4 µM |
| Cc1nn(C2CCS(=O)(=O)C2)c(C)c1CN(C)C(=O)C=Cc1sc2ccccc2c1Cl (stereo unspecified) | > 100 µM (inactive) |
| Cc1c(CNC(=O)c2ccc(Cn3cc(Cl)c([N+](=O)[O-])n3)cc2)cnn1C | > 100 µM (inactive) |
| Cc1cc2nc(CN(C)Cc3ncccc3C)[nH]c2cc1C | 40 µM |
| CN(C)S(=O)(=O)c1ccc(-c2cnc(N)c(-c3nc4ccc(F)cc4[nH]3)c2)cc1 | > 100 µM (inactive) |

| SMILES | IC50 |
| --- | --- |
| CC1(Oc2cncc(Cl)c2)CCN(Cc2cc3ccccc3[nH]2)C1 (stereo unspecified) | 32 µM |
| O=C(NCC(c1cccnc1)N1CCc2ccccc2C1)C(=O)Nc1cccc(Cl)c1 (stereo unspecified) | > 100 µM (inactive) |
| CC(=O)Nc1nc(-c2cc(C)ccc2C)c(C)s1 | > 100 µM (inactive) |
| Cc1c(C#N)c([N+](=O)[O-])nn1Cc1cccc(Cl)c1Cl | 79 µM |
| NC(=O)c1ccc(-c2cccc(OCCN3CCN(C4CCCCC4)CC3)c2)cc1 | 50 µM |
| O=C(Nc1ccccc1)Nc1nc(-c2ccccn2)cs1 | 25 µM |
| Cc1c(C(=O)NCCCCn2ccnc2)oc2c(C)cccc12 | 79 µM |
| O=C(C1CCCCC1)N1CCN(c2nnc(-c3ccccc3)c3ccccc23)CC1 | > 100 µM (inactive) |
| O=C(NC(CO)c1ccc(F)cc1)c1ccc(-c2c[nH]c3ncccc23)s1 (stereo unspecified) | 40 µM |
| CCOc1ccc(CC(=O)N2c3ccccc3CC2C(=O)NC)cc1 (stereo unspecified) | > 100 µM (inactive) |
| Nc1nc(-c2ccccc2)cc(-c2nc3ncccc3[nH]2)n1 | 40 µM |
| CN(Cc1ccc(F)cc1)c1ccc(OCC(=O)N2CCCCC2c2cccnc2)nn1 (stereo unspecified) | > 100 µM (inactive) |
| Cc1nc(-c2ccc3c(c2)OCO3)sc1C(=O)NCc1ccc2c(c1)OCO2 | > 100 µM (inactive) |
| CC(=O)Nc1ccc(-c2csc(NC(=O)c3ccc([N+](=O)[O-])s3)n2)cc1 | 50 µM |
| CC1(C)CCC(=Cc2ccc(Cl)cc2)CC1(O)Cn1ccnc1 (stereo unspecified) | 50 µM |
| NC(=O)c1ncc(N[C@@H]2CCCNC2)nc1Nc1cccc(Cl)c1 | 10 µM |
| COc1ccc(S(=O)(=O)Nc2ccc(CN3CCN(C(=O)c4cccc(C#N)c4)CC3)cc2)cc1 | > 100 µM (inactive) |
| COCCn1cnc2cc(NC(=O)C3CCCCC3)cc(C(=O)N3CCc4sccc4C3)c21 | > 100 µM (inactive) |
| Cc1nn(-c2nc3ccccc3[nH]2)c2c1C(c1ccc(O)cc1)CC(=O)N2 (stereo unspecified) | 25 µM |
| Cc1ccc2onc(Nc3ccnc(Nc4cccc(S(C)(=O)=O)c4)n3)c2c1 | 50 µM |
| CCN(CC)S(=O)(=O)c1ccc(C(=O)Nc2cc(C)nn2-c2nc(C)c(C)c(=O)[nH]2)cc1 | > 100 µM (inactive) |
| O=c1ccn(-c2ccc([N+](=O)[O-])cc2Cl)c2ccc(F)cc12 | > 100 µM (inactive) |
| O=C(NCc1nnc2n1CCCCC2)c1csc(-c2ccccc2)n1 | > 100 µM (inactive) |
| O=C(Cc1ccccc1)Nc1ccccc1C(=O)Nc1nccs1 | > 100 µM (inactive) |
